According to PubChem BioAssay (NCI):
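Assay format: 96-well plates, 48-hour exposure. At the GI50, growth is halved. TGI marks complete inhibition of growth.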

Legend:
Test in all cases: inhibition of tumour cell growth, NCI panel, 48 h
A549 NSCLC = tested on: A549 NSCLC
LOX IMVI melanoma = tested on: LOX IMVI melanoma
HL-60(TB) leukemia = tested on: HL-60(TB) leukemia
SR leukemia = tested on: SR leukemia
OVCAR-4 ovarian = tested on: OVCAR-4 ovarian
KM12 colon = tested on: KM12 colon
TK-10 renal = tested on: TK-10 renal
MDA-MB-231 breast = tested on: MDA-MB-231 breast
PC-3 prostate = tested on: PC-3 prostate
EKVX NSCLC = tested on: EKVX NSCLC

Row | SMILES | TGI (A549 NSCLC) [µM] | TGI (LOX IMVI melanoma) [µM] | TGI (HL-60(TB) leukemia) [µM] | TGI (SR leukemia) [µM] | TGI (OVCAR-4 ovarian) [µM] | TGI (KM12 colon) [µM] | TGI (TK-10 renal) [µM] | GI50 (A549 NSCLC) [µM] | GI50 (LOX IMVI melanoma) [µM] | GI50 (HL-60(TB) leukemia) [µM] | GI50 (MDA-MB-231 breast) [µM] | TGI (MDA-MB-231 breast) [µM] | GI50 (PC-3 prostate) [µM] | TGI (PC-3 prostate) [µM] | GI50 (OVCAR-4 ovarian) [µM] | GI50 (EKVX NSCLC) [µM] | TGI (EKVX NSCLC) [µM] | GI50 (KM12 colon) [µM] | GI50 (TK-10 renal) [µM] | GI50 (SR leukemia) [µM]
1 | CC(=O)OCC1OC(OCc2ccccc2)C(Br)C(OC(C)=O)C1OC(C)=O (configuration not stated) | > 100 | > 100 | > 100 | > 100 | > 100 | > 100 | > 100 |  |  |  |  |  |  |  |  |  |  |  |  | 
2 | Clc1ccc(OCc2nnc3n2N=C(c2ccc(Br)cc2)CS3)cc1 | > 100 | 46 | > 100 | > 100 |  | > 100 | 35.6 |  |  |  |  |  |  |  |  |  |  |  |  | 
3 | COc1ccc(Cl)cc1Nc1nc(C(F)(F)F)ccc1C(=O)N/N=C/c1cccnc1 | > 100 | > 100 | > 100 |  | > 100 | > 100 | > 100 | 5.49 | 3.17 | 1.95 | 4.51 | > 100 | 3.8 | > 100 | 0.521 | 2.98 | > 100 | 3.63 | 5.9 | 
4 | COc1ccc(S(=O)(=O)N[C@H](C(=O)O)c2ccccc2)cc1 | > 100 | > 100 |  |  | > 100 | > 100 | > 100 |  |  |  |  |  |  |  |  |  | > 100 |  |  | 
5 | COc1ccccc1/C=C/C1=C(C)CCC(c2ccccc2OC)C1C (configuration not stated) |  | > 56.8 | 0.603 |  | > 100 |  | 45.1 | 0.223 | 0.184 | 0.262 | 0.157 | 6.41 | 0.392 | > 100 | 1.37 | 0.119 | > 100 | 0.0879 | 0.227 | 
6 | COC1[C@H](NC(=O)OC(C)(C)C)C(=O)N1Cc1ccccc1 (some centres not stated) | > 100 | > 100 | > 100 |  | > 100 | > 100 | > 100 |  |  |  |  |  |  |  |  |  | > 100 |  |  | 
7 | COc1cccc(/C=C/c2ccnc3ccccc23)c1OC | > 10 | > 10 | > 10 |  | > 10 | > 10 | > 10 |  |  |  |  | > 10 |  | > 10 |  |  | > 10 |  |  | 
8 | c1ccc(-c2n(Cc3ccc4ccccc4c3)cc[n+]2Cc2ccc3ccccc3c2)cc1 |  |  |  | 3.4 |  |  | 2.83 |  |  |  | 1.07 | 2.35 | 1.22 | 2.68 |  |  |  |  | 1.34 | 0.972
9 | COc1cc(/C=C/c2ccc(Br)cc2)cc(OC)c1OC | > 100 | > 100 | 19 | > 100 | 87.1 | 38 | > 100 |  |  |  |  |  |  |  |  |  | > 61.3 |  |  | 
10 | COc1cc(-c2ccc(NC(=O)SCCC(=O)O)cc2OC)ccc1NC(=O)SCCC(=O)O | > 100 | > 100 | > 100 | > 100 | > 100 | > 100 | > 100 |  |  |  |  |  |  |  |  |  | > 100 |  |  | 
11 | Cc1cc(C)c2c(c1)N[S@@](=O)S2 | > 100 | 30.7 | 61.2 | 83.7 | 61.3 | 69.6 | 80.3 |  |  |  |  |  |  |  |  |  | > 100 |  |  | 
12 | COC1OC(CBr)C(OC(=O)c2ccccc2)C(OS(=O)(=O)c2ccc(C)cc2)C1Br (configuration not stated) | > 100 | > 100 | > 100 | > 100 | > 100 | > 100 | > 100 |  |  |  |  |  |  |  |  |  | > 100 |  |  | 
13 | O=C1C2c3[nH]c4ccccc4c3C3CCCCCC3C2C(=O)N1c1ccccc1 (configuration not stated) | > 67.5 | > 49.9 | > 70.3 | > 53.9 | > 24.5 | > 100 | > 100 |  |  |  |  |  |  |  |  |  | > 100 |  |  | 
14 | CCCCCCCCCCCCCCCCCCOc1ccccc1CC(=O)OCC[N+](CC)(CC)CC | 7.42 | 1.66 | 2.78 |  | 7.42 | 3.86 | 7.65 | 1.44 | 0.881 | 0.926 | 1.05 | 2.7 | 1.2 | 3.18 | 1.75 | 2.15 | 8.44 | 1.42 | 1.45 | 
15 | CC(=O)[CH-]C(=O)c1ccccc1.CC(=O)[CH-]C(=O)c1ccccc1.CC(C)CCC[C@H](C)C1CCC2[C@@H]3CC=C4C[C@@H]([O-])CC[C@]4(C)C3CC[C@@]21C.CC(C)CCC[C@H](C)C1CCC2[C@@H]3CC=C4C[C@@H]([O-])CC[C@]4(C)C3CC[C@@]21C.Cl.[Ti+4] (some centres not stated) | > 25 | > 25 | > 25 |  | > 25 | > 25 | > 25 | > 25 | > 25 | 13.7 |  |  |  |  | > 25 | > 25 | > 25 | > 25 | > 25 | 
16 | COc1cc2c(cc1O)CN1CCC23C=C[C@@H](O)CC13 (some centres not stated) | > 100 | > 100 | 38 | > 100 | > 100 | > 100 | > 100 |  |  |  |  |  |  |  |  |  | > 100 |  |  | 
17 | COC(=O)C1C(=O)O[C@@H](c2ccc(OC)c(OC)c2OC)C1C(=O)OC (mixture of isomers) | > 100 | > 100 | > 100 | > 100 | > 100 | > 100 | > 100 |  |  |  |  |  |  |  |  |  | > 100 |  |  | 
18 | CC1CCC(=O)C(C(O)CC2CC(=O)N(c3ccccc3)C(=O)C2)C1 (configuration not stated) | > 100 | > 100 | > 100 | > 100 | > 100 | > 100 | > 100 |  |  |  |  |  |  |  |  |  | > 100 |  |  | 
19 | Cc1cc(=O)n(-c2c(C)cccc2Cl)c(/C=C(\O)c2ccncc2)n1 | > 100 | > 100 | > 100 |  | > 100 | > 100 | > 100 |  |  |  |  |  |  |  |  |  | > 100 |  |  | 
20 | CCN(CC)c1ccc(C2NC(=O)c3ccccc3N2)cc1 (configuration not stated) | > 100 | > 100 |  | > 100 | > 100 |  | > 100 |  |  |  |  | 7.76 |  | > 100 |  |  | > 100 |  |  | 
21 | COc1ccc2c(c1)[n+](=O)c(C(=O)C/C(=N/NC(=O)C[N+](C)(C)C)C(=O)Nc1cccc(C)c1C)c(C)n2O | > 100 |  |  |  | > 100 | > 100 |  |  |  |  |  |  |  |  |  |  | > 100 |  |  | 
